Assay results: patent US11351185B2, “Use of isovalerylspiramycins as anti-cancer agents to inhibit metastasis” (priority 2020, dated 2022)
Values joined by “and” are separate entries in the source; they are usually repeats but may differ in a detail not shown here. Equal entries are not always repeated. “Also recorded” adds a separate entry of the source.

Tests used:
[1] = test system: renal cell carcinoma (RCC) cell lines ACHN, UM-RC-2, RCC4 and 786-O; assay: CCK8 cell viability assay, renal cell carcinoma cell lines; type: cell-based; settings: 48 hours
Procedure: To confirm the cytotoxic effect observed in the glioblastoma cell lines, the inventors assessed ISP I's effect on renal cell carcinoma (RCC) cell lines (ACHN, UM-RC-2, RCC4 and 786-0). Cell viability was assessed similarly via CKK8 analysis. […] (FIG. 4C, D).
(§1) Cell viability was measured by Cell Counting Kit-8 (CCK-8, Dojindo Molecular Technologies, Tokyo, Japan). Cells were seeded in 96-well plates at a density of 3×10^3 cells/well and cultured for 24 hours before treatment with ISP I at different concentration. After treatment for a gradient ISP I concentration from 0 to 20 μg/ml for 48 hours, while control groups were only treated in PBS solution, 10 μl of CCK-8 solution were added to each well and cells were incubated for an additional 2 hours. The absorbance in each well at a wavelength of OD450 was detected by the Synergy H1 microplate reader, a product of BioTek (Winooski, Vt. USA).

[2] = test system: other proteins (antioxidant components); assay: Surface plasmon resonance (SPR) assay, other antioxidant components; type: binding
[3] = Tolerability in xenograft mouse models (bodyweight, histopathology, clinical chemistry); type: in vivo, mice
786-O tumors = assay: 786-O subcutaneous xenograft mouse model; type: in vivo, NSG mice; settings: 35 mg/kg i.p. daily; 18 days after treatment
Procedure: For subcutaneous xenografts, NSG mice (6-8 weeks old) from the NCI-Frederick animal facility and Jackson Lab (Bar Harbor, Me. USA) were injected with 5×10^6 to 1×10^7 cells subcutaneously in the flank. One week later, the tumor-bearing mice were randomly assigned to different groups and made the tumor volume baseline equivalent and treated with normal saline or Zenomycin (35 mg/kg) everyday intraperitoneally. Tumors were measured using a caliper, and volume was calculated.

[4] = test system: SELH-deficient 786-O and RCC4 cells; assay: CCK8 assay in SELH-deficient (CRISPR/CAS9) RCC cells; type: cell-based; settings: 786-O and RCC4 SELH knock out
Procedure: as §1

NRF2, HMOX1, NQO1 = assay: Real time RT-PCR of NRF2 and downstream genes; type: cell-based; settings: for NRF2 expression (RT-PCR): 24 hours
Procedure: NRF2 (NFE2L2) is a transcription factor that regulates redox homeostasis by binding to the regulatory regions of antioxidant response elements (ARE). […] Glioblastoma (LN229 and U251) cells and RCC (786-O and RCC4) cells were treated with ISP I and evaluated for NRF2 expression levels. […] Considering this finding, the inventors evaluated SELH's regulatory role on NRF2 by measuring NRF2 expression in cells that either overexpressed or had silenced SELH expression.
Total RNA was extracted using PureLink RNA Mini Kit, a product of ThermoFisher Scientific (Waltham, Mass. USA), according manufacturer's protocol. First strand cDNA was synthesized with iScript cDNA Synthesis Kit, a product of Bio-Rad (Hercules, Calif. USA). Then the inventors performed real time PCR by SsoAdvanced Universal SYBR Green Supermix kit, a product of Bio-Rad, to quantify the expression levels of genes NRF2, HMOX1, and NQO1. The primer sequences are described in Liu et al., J. Nat'l Cancer Inst. 111: 1033 (2019). Data were analyzed and normalized to 18s rRNA as the reference gene for further statistics.

SELH = target: T1, SELH (Homo sapiens, UniProt Q8IZQ5); assay: Drug affinity responsive target stability (DARTS) assay; type: binding; parameters: endogenous in cells; host or cells: LN229; settings: LN229 lysate; ISP I 40 μg/mL
T1 sequence (Q8IZQ5 1-122): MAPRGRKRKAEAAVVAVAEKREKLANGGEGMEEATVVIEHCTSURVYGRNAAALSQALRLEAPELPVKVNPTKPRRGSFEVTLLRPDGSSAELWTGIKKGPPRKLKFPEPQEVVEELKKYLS
Procedure: To identify ISP I's molecular target, the inventors performed drug affinity responsive target stability (DARTS) assay in LN229 cells.
The inventors discovered that the binding of ISP I to its target proteins temporarily locks them into a stable conformational structure, which prevents their recognition by proteases. After evading protease degradation, the identity of ISP I's target proteins was determined using mass spectroscopy.
DARTS assay data were taken to identify the target of ISP I in vitro. For this assay, the invenots used the protocol published by Lomenick et al., Proc. Nat'l Acad. Sci. USA 106: 21984 (2009). Briefly, LN229 cells were lysed with M-PER (Pierce) supplemented with protease and phosphatase inhibitors. After centrifugation at 14,000 rpm for 15 min, lysates were diluted to the same final volume and protein concentration with M-PER and were dissolved in TNC buffer [50 mM Tris-HCl (pH 8.0), 50 mM NaCl, 10 mM CaCl2)]. All steps were performed on ice or at 4° C. to help prevent premature protein degradation. […] Peptides were analyzed by LC/MS/MS on a Thermo LTQ-Orbitrap mass spectrometer with an Eksigent LC pump. For quantitative comparison of protein and peptide abundances, MS spectra were analyzed by means of the differential workflow of Rosetta Elucidator (Rosetta Inpharmatics).

[5] = LN229, 786-O and IOMM xenograft mouse models

Structure (SMILES): COC1C(O)CC(=O)OC(C)CC=CC=CC(OC2CCC(N(C)C)C(C)O2)C(C)CC(CC=O)C1OC1OC(C)C(OC2CC(C)(O)C(OC(=O)CC(C)C)C(C)O2)C(N(C)C)C1O (stereo not shown) [ISP I, 4″-isolvalerylspiramycin I]
- cytotoxic effect on RCC cell lines [1]: demonstrated a cytotoxic effect
- most / least sensitive RCC cell line to cytotoxic effect ([1]; ACHN, UM-RC-2, RCC4, 786-O): ACHN appeared to be the most sensitive and 786-O demonstrated to be the least sensitive
- binding to other proteins (SPR) [2]: does not bind with the other proteins
- histopathology of major organs and standard clinical chemistry ([3]; 24 days after treatment): no hematologic, renal, pancreatic or liver toxicities
- bodyweight during treatment [3, 5]: bodyweight maintenance; also recorded: animals maintained their bodyweight
- tolerability of treatment [3, 5]: well-tolerated
- tumor size, weight and burden (786-O tumors): reduced 786-O tumor burden; also recorded: significantly reduced tumor size and weight
- sensitivity of SELH-deficient cells vs wild type (CCK8) [4]: resistance to ISP I; also recorded: SELH-deficient cells were resistant to ISP I treatment
- expression of NRF2 downstream genes HMOX1 and NQO1 (NRF2, HMOX1, NQO1; 786-O and RCC4): increase in expression of the NRF2 downstream genes HMOX1 and NQO1; also recorded: significant increase in the downstream targets of NRF2 signaling
- NRF2 expression (RT-PCR) (NRF2, HMOX1, NQO1; 786-O and RCC4, 10 μg/ml): increase in NRF2 expression; also recorded: NRF2 expression was significantly upregulated
- expression of NRF2 downstream genes HMOX1 and NQO1 (NRF2, HMOX1, NQO1; LN229 and U251): increase of the expression of NRF2 downstream genes HMOX1 and NQO1; also recorded: significant increase in the downstream targets of NRF2 signaling
- NRF2 expression (RT-PCR) (NRF2, HMOX1, NQO1; LN229 and U251, 10 μg/mL): increase in NRF2 expression; also recorded: NRF2 expression was significantly upregulated
- protein protected from protease (target identification by mass spectroscopy) (SELH): SELH was the most abundant primary protein present
